# Patent EP1022029A1, “NOOTROPIC AGENT” (priority 1997, dated 1999)
# Assays:
# α4β2 receptor = molecular target: T1, α4β2 receptor (Rattus norvegicus, UniProt P09483+P12390); experiment: ACh-evoked currents in α4β2 receptors expressed in Xenopus oocytes (two-electrode voltage clamp); assay type: cell-based; settings: for normalized response (%): nef(-), n=5; for % of the original amplitude (Ach-evoked current): treatment as labelled, nefiracetam 1 µM, GF109203X 100 nM, peptides co-expressed, Mean ± SD, n = 6 to 8
# T1 construct: expressed in transfected cells; host or cells: Xenopus oocytes injected with in vitro transcribed mRNA
# T1 sequence (P09483 31-630): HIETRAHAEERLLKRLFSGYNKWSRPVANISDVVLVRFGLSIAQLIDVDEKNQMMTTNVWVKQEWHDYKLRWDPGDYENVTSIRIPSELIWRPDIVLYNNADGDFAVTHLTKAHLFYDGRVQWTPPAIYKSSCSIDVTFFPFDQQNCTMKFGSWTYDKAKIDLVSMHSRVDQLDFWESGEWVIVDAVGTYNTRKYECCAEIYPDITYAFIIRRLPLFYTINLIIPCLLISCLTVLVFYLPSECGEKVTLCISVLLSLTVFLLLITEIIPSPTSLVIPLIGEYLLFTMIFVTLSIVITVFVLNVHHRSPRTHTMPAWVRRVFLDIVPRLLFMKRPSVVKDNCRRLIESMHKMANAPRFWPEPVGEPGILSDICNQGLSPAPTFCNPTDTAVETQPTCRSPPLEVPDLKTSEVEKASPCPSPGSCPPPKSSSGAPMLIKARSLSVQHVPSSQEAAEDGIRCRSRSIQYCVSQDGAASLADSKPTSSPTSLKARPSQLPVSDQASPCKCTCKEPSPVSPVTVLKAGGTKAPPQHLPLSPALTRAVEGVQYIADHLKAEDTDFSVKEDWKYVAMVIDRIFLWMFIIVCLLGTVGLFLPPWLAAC
# T1 sequence (P12390 25-500): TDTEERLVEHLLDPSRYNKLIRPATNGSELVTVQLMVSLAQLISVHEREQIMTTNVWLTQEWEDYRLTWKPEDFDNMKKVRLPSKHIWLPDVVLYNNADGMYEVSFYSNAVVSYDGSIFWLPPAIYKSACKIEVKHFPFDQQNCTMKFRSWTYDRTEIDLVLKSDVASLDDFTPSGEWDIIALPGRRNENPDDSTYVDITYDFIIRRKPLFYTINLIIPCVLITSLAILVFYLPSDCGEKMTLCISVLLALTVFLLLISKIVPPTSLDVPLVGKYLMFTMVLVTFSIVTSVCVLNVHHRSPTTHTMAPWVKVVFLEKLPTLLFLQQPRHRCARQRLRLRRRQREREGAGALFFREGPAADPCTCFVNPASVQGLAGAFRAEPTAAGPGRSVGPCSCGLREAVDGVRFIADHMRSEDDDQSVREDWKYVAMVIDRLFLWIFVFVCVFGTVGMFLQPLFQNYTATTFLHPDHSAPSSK
# Experimental: Two-electrode voltage-clamp technique was used to record expression α4β2 or α7 receptors in oocytes. ACh (100 µM) was applied to a single oocyte in the presence or absence of α-BuTX (50 nM) or MCA (3 µM). The holding voltage was -30 or -60 mV for α4β2-nAChR or α7-nAChR, respectively. Downward directions correspond to inward currents.
# (§1) mRNAs for the rat α4β2 receptor and α7 receptor, GLUR1, 2, 3 receptors, and NP152 and NP153 were constructed as described previously. Xenopus oocytes were manually separated from the ovary, and subjected to treatment with collagenase (0.5 mg/ml). Thereafter, the treated oocytes were incubated overnight in Barth's solution (in mM, 88 NaCl, 1 KCl, 2.4 NaHCO3, 0.82 MgSO4, 0.33 […], 0.41 CaCl2, and 7.5 Tris; pH 7.6). The oocytes were injected with the α4β2 or α7 receptor mRNA and incubated at 18°C. In some cases, NP152 and NP153 were co-expressed with the α4β2 and α7 receptors. The injected oocytes were incubated and transferred to a recording chamber 2-7 days after incubation and continuously superfused at room temperature (20-22°C) with a standard frog Ringer's solution [in mM: 115 NaCl, 2 KCl, 1.8 CaCl2, 5 HEPES; pH 7.0]. To remove the effect of endogenous muscarinic ACh receptor, 1 µM atropine was added to the extracellular solution. ACh-evoked currents were recorded by use of two-electrode voltage clamp techniques and an amplifier (GeneClamp-500, Axon Instrument, Inc. USA). The currents were analyzed on a microcomputer by pClamp software (Axon Instrument, Inc.; Version 6). From the results, an assessment was made as to whether nefiracetam actually acts on the nACh receptors.
# α7 receptor = molecular target: T2, α7 receptor (Rattus norvegicus, UniProt Q05941); experiment: ACh-evoked currents in α7 receptors expressed in Xenopus oocytes (two-electrode voltage clamp); assay type: cell-based; settings: for normalized response (%): nef(-), n=5; for % of the original amplitude (Ach-evoked current): treatment as labelled, nefiracetam 1 µM, GF109203X 100 nM, peptides co-expressed, Mean ± SD, n = 6 to 8
# T2 construct: expressed in transfected cells; host or cells: Xenopus oocytes injected with in vitro transcribed mRNA
# T2 sequence (Q05941 23-502): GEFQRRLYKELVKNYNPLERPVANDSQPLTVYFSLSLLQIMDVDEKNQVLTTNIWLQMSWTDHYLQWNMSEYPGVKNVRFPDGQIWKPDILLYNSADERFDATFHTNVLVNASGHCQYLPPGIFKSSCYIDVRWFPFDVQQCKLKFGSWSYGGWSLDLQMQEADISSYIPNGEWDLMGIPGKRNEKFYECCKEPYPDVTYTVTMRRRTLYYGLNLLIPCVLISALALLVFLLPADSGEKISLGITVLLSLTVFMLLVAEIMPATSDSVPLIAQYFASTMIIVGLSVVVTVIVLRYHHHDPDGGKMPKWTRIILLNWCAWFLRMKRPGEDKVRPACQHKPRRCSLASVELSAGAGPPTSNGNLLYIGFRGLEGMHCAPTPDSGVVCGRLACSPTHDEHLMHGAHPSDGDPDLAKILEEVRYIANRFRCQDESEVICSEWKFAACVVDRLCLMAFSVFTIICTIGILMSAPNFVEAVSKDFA
# Experimental: Two-electrode voltage-clamp technique was used to record expression α4β2 or α7 receptors in oocytes. […] The holding voltage was -30 or -60 mV for α4β2-nAChR or α7-nAChR, respectively. Downward directions correspond to inward currents.
# as §1
# [1] = tested on: postsynaptic potentials evoked from the hippocampal CA1 region; experiment: Postsynaptic potentials recorded in the CA1 pyramidal cell layer of rat hippocampal slices; assay type: cell-based; settings: Rattus norvegicus, APV 100 µM alone, -10 to -1 min before nefiracetam; Time (min) in c0; n=5; read-out: Postsynaptic potential (% of original amplitude)
# [2] = tested on: glutamate release from hippocampal slices; assay type: cell-based, guinea pig; settings: St (ES+) electrical stimulation; nefiracetam 1 µM, tetrodotoxin 0.5 µM, α-bungarotoxin 50 nM, mecamylamine 3 µM
smiles,measurement,setting,value
"CC(=O)OCC[N+](C)(C)C [ACh, reference compound]",normalized response (%),α4β2 receptor; ACh 0.1 µM,0%
same,normalized response (%),α4β2 receptor; ACh 1 µM,3%
same,normalized response (%),α4β2 receptor; ACh 10 µM,43%
same,normalized response (%),α4β2 receptor; ACh 100 µM,75%
same,normalized response (%),α4β2 receptor; ACh 1000 µM,100%
same,normalized response (%),α7 receptor; ACh 0.1 µM,0%
same,normalized response (%),α7 receptor; ACh 1 µM,0.5%
same,normalized response (%),α7 receptor; ACh 10 µM,1%
same,normalized response (%),α7 receptor; ACh 100 µM,28%
same,normalized response (%),α7 receptor; ACh 1000 µM,100%
"N[C@H](CCCP(=O)(O)O)C(=O)O [APV, D-2-amino-5-phosphonovaleric acid, reference compound]",activity at 100 µM,[1],87 ± 7%
"Nc1nc2c(ncn2[C@@H]2O[C@H](COP(=O)(O)OP(O)(O)=S)[C@@H](O)[C@H]2O)c(=O)[nH]1 [GDPβS, reference compound]",% of the original amplitude (Ach-evoked current),α4β2 receptor,96 ± 10%
same,% of the original amplitude (Ach-evoked current),α7 receptor,100 ± 11%
"CN(C)CCCn1cc(C2=C(c3c[nH]c4ccccc34)C(=O)NC2=O)c2ccccc21 [GF109203X, reference compound]",% of the original amplitude (Ach-evoked current),α4β2 receptor,79.3 ± 15%
same,% of the original amplitude (Ach-evoked current),α7 receptor,102.2 ± 9.6%
"O=S(=O)(NCCNCC=Cc1ccc(Br)cc1)c1cccc2cnccc12 [H89, N-[2-(p-Bromocinnamylamino)ethyl]-5-isoquinolinesulfonamide · 2HCl, reference compound]",% of the original amplitude (Ach-evoked current),α4β2 receptor,98.8 ± 12%
same,% of the original amplitude (Ach-evoked current),α7 receptor,99.4 ± 5.8%
"CN[C@@H]1C[C@H]2O[C@@](C)([C@@H]1OC)n1c3ccccc3c3c4c(c5c6ccccc6n2c5c31)C(=O)NC4 [Staurosporine, reference compound]",% of the original amplitude (Ach-evoked current),α4β2 receptor,90 ± 8%
same,% of the original amplitude (Ach-evoked current),α7 receptor,101 ± 8%
"CNC1(C)C2CCC(C2)C1(C)C (stereo not drawn) [mecamylamine, reference compound]",effect on ACh-evoked current (Fig. 3),"α4β2 receptor; MCA 3 µM, ACh 100 µM, holding voltage -30 mV",strongly inhibit
same,Amount of released glutamate,[2],2.45 ± 0.3 (c) nmol/mg protein/10min.
